Among the data in the RepoRT retention time repository (doi:10.1016/j.jhazmat.2019.121712) are LC retention time values, retold here.

A short description of this data set: Thermo Scientific Acclaim RSLC 120 C18, 100 × 2.1 mm, 2.2 µm, 30 °C; A: 90% water + 10% methanol + 0.01% formic acid + 5 mM ammonium formate; B: methanol + 0.01% formic acid + 5 mM ammonium formate; gradient (min/%B) 0.1/1 3/39 14/99.9 16/99.9. To be noted: stereoisomer not certain.
Turning to `CN1CCC(=C2c3ccccc3CCc3sccc32)CC1`, the LC retention time was determined as 7.86 min.
With `COCC(C)N(C(=O)C(=O)O)c1c(C)csc1C` (stereo unspecified), the LC retention time stood at 6.36 min.
As to `NC(=O)c1cccnc1`, the LC retention time was determined as 2.73 min.
Regarding `NC1CC1c1ccccc1` (stereo unspecified), the LC retention time is 4.27 min.
Regarding `COc1ccccc1CC(=O)c1cn(CCC2CCCCC2)c2ccccc12`, the LC retention time is 13 min.
`CC(C)C1(C)N=C(c2ncccc2C(=O)O)NC1=O` (stereo unspecified): the LC retention time was 4.1 min.
Turning to `Nc1ccc(S(=O)(=O)Nc2ccccn2)cc1`, the LC retention time was 3.8 min.
`CCn1cc(C(=O)O)c(=O)c2ccc(C)nc21`: the LC retention time worked out at 7.06 min.
For the compound `CCCc1nn(C)c2c(=O)[nH]c(-c3cc(C(=O)CN4CCN(CC)CC4)ccc3OCC)nc12`, the LC retention time stood at 7.01 min.
Under `C1=CCC(c2cccnc2)NC1` (stereo unspecified) stands 2.68 min; under `CCS(=O)(=O)c1cccnc1S(=O)(=O)NC(=O)Nc1nc(OC)cc(OC)n1`, 7.09 min.
With `CC(CN1c2ccccc2Sc2cccnc21)N(C)C` (stereo unspecified), the LC retention time is 6.47 min.
Under `CC1=C(C(=O)O)N2C(=O)C(NC(=O)C(N)c3ccc(O)cc3)C2SC1` (stereo unspecified) stands 2.84 min; under `Cc1c(N(C)C)c(=O)n(-c2ccccc2)n1C`, 5.21 min; under `C=CC=CCC1=C(C)C(OC(=O)C2C(C=C(C)C)C2(C)C)CC1=O` (stereo unspecified), 12.9 min.
Turning to `c1coc(-c2nc3ccccc3[nH]2)c1`, the LC retention time is 6.48 min.
Turning to `CCNc1nc(NCC)nc(SC)n1`, the LC retention time was determined as 8.14 min.
Regarding `NC(=O)c1ccccc1O`, the LC retention time worked out at 4.76 min.
Take `O=C(Nc1ccccc1)Nc1cnns1`: the LC retention time is 7.17 min.
For `CCC1OC(=O)CC(O)C(C)C(OC2OC(C)C(OC3CC(C)(O)C(O)C(C)O3)C(N(C)C)C2O)C(CC=O)CC(C)C(=O)C=CC(C)=CC1COC1OC(C)C(O)C(OC)C1OC` (stereo unspecified), the LC retention time came to 7.88 min.
For `CC(C)N(CCC(C(N)=O)(c1ccccc1)c1ccccn1)C(C)C` (stereo unspecified), the LC retention time came out at 4.74 min.
On to `CN1CCC23c4c5ccc(O)c4OC2C(O)C=CC3C1C5` (stereo unspecified), for which the LC retention time stood at 2.54 min.
Consider `CCC(c1ccccc1)c1c(O)c2ccccc2oc1=O` (stereo unspecified), for which the LC retention time turned out to be 9.05 min.
Under `CCC1OC(=O)CC(O)C(C)C(OC2OC(C)C(O)C(N(C)C)C2O)C(CCN2CC(C)CC(C)C2)CC(C)C(=O)C=CC(C)=CC1COC1OC(C)C(O)C(OC)C1OC` (stereo unspecified) stands 6.69 min; under `CCCCCc1cc(O)c2c(c1)OC(C)(C)C1CCC(C)=CC21` (stereo unspecified), 14 min; under `CNC(=O)Oc1cccc2ccccc12`, 7.46 min.
Take `CC(=O)c1ccc(S(=O)(=O)NC(=O)NC2CCCCC2)cc1`: the LC retention time came to 7.72 min.
With `COc1ccc2c(c1)N(CC(C)CN(C)C)c1ccccc1S2=O` (stereo unspecified) the figure was 5.98 min; with `CC[N+]1([O-])CCCC1CNC(=O)c1cc(S(=O)(=O)CC)c(N)cc1OC` (stereo unspecified), 4.33 min; with `CCN(CCCCOC(=O)c1ccc(OC)c(OC)c1)C(C)Cc1ccc(OC)cc1` (stereo unspecified), 6.79 min.
Take `O=C1N=CCC=N1`: the LC retention time worked out at 4.49 min.
On to `CCC(c1cccc(O)c1)C(C)CNC` (stereo unspecified), for which the LC retention time worked out at 5.14 min.
Turning to `CSc1nnc(C(C)(C)C)c(=O)n1N`, the LC retention time was found to be 7.07 min.
Consider `COC(=O)C(C)N(C(=O)c1ccco1)c1c(C)cccc1C` (stereo unspecified), for which the LC retention time is 8.99 min.
On to `COc1ccc2c(c1)[nH]c1c(C)nccc12`, for which the LC retention time turned out to be 5.34 min.
As for `CCC(C)CC(C)N` (stereo unspecified), the LC retention time stood at 4.68 min.
With `CCCNC(C)C(=O)Nc1ccccc1C` (stereo unspecified), the LC retention time worked out at 4.69 min.
Turning to `COc1ccc2c3c1OC1C(OC(C)=O)=CCC4C(C2)N(C)CCC314` (stereo unspecified), the LC retention time worked out at 4.47 min.
Consider `NN1CC(=O)N2C(Cc3c([nH]c4ccccc34)C2c2ccc3c(c2)OCO3)C1=O` (stereo unspecified), for which the LC retention time worked out at 7.84 min.
Take `CC(C(=O)c1ccc2c(c1)OCO2)N1CCCC1` (stereo unspecified): the LC retention time came out at 4.13 min.
`CN(C)CCc1c[nH]c2ccc(O)cc12`: the LC retention time was 2.82 min.
In the case of `CC1C(=O)OC2CC[N+]3([O-])CC=C(COC(=O)C(C)(O)C1(C)O)C23` (stereo unspecified), the LC retention time worked out at 3.19 min.
As to `CCOC(=O)C1(c2ccccc2)CCN(CCC(C#N)(c2ccccc2)c2ccccc2)CC1`, the LC retention time stood at 10.4 min.
As to `O=C(c1cccc2ccccc12)c1cn(CCN2CCOCC2)c2ccccc12`, the LC retention time turned out to be 9.88 min.
Regarding `C=CCN1CCC23c4c5ccc(O)c4OC2C(=O)CCC3(O)C1C5` (stereo unspecified), the LC retention time came to 3.44 min.
`CC12C=CC(=O)C=C1CCC1C2C(O)CC2(C)C1CCC2(O)C(=O)CO` (stereo unspecified): the LC retention time was 7.84 min.
As for `CNC(=O)Oc1cccc2c1OC(C)(C)C2`, the LC retention time was 7.01 min.
With `C#CCOS(=O)OC1CCCCC1Oc1ccc(C(C)(C)C)cc1` (stereo unspecified), the LC retention time is 12.8 min.
Consider `CC12CCC3C(CC=C4CC(O)CCC43C)C1CCC2=O` (stereo unspecified), for which the LC retention time amounted to 10.2 min.
Under `COc1cc2nc(N3CCN(C(=O)C4CCCO4)CC3)nc(N)c2cc1OC` (stereo unspecified) stands 4.92 min; under `CCOC(=O)CC(SP(=O)(OC)OC)C(=O)OCC` (stereo unspecified), 7.01 min.
`CCCOc1ccc(S(=O)(=O)N2CCN(CCO)CC2)cc1-c1nc2c(CCC)cn(CC)c2c(=O)[nH]1`: the LC retention time was 9.49 min.
With `CCNc1nc(NCC)[nH]c(=O)n1`, the LC retention time was found to be 4.21 min.
Under `COC(=O)c1ccccc1S(=O)(=O)NC(=O)Nc1nc(C)nc(OC)n1` stands 6.31 min.
Regarding `CCCCC1(COC(=O)CCC(=O)O)C(=O)N(c2ccccc2)N(c2ccccc2)C1=O`, the LC retention time came out at 9.61 min.
With `CNCCC(Oc1cccc2ccccc12)c1cccs1` (stereo unspecified), the LC retention time is 8.11 min.
With `CNC(=O)ON=C(C)C(C)S(C)=O` (stereo unspecified), the LC retention time was found to be 3.35 min.
`COCCOc1ccccc1S(=O)(=O)NC(=O)Nc1nc(OC)nc(OC)n1`: the LC retention time is 6.36 min.
Turning to `CCOC(=O)C1=CC(OC(CC)CC)C(NC(C)=O)C(N)C1` (stereo unspecified), the LC retention time came out at 6.76 min.
For `O=C(O)c1cc(N=Nc2ccc(S(=O)(=O)Nc3ccccn3)cc2)ccc1O`, the LC retention time is 6.61 min.
Regarding `CCN(CC)C(C)C(=O)c1ccccc1` (stereo unspecified), the LC retention time came to 4.11 min.
In the case of `NC(N)=NS(=O)(=O)c1ccc(N)cc1`, the LC retention time is 1.93 min.
On to `CC(C(=O)O)c1cccc(C(=O)c2ccccc2)c1` (stereo unspecified), for which the LC retention time worked out at 8.53 min.
`CNC(=O)Nc1nc2ccccc2s1`: the LC retention time was 7.13 min.
Take `CC(C)CC(CN)CC(=O)O` (stereo unspecified): the LC retention time was determined as 3.88 min.
In the case of `COCCOc1c(OC)cc(Cc2cnc(N)nc2N)cc1OC`, the LC retention time amounted to 4.24 min.
Under `N#CC(CCN1CCC(C(N)=O)(N2CCCCC2)CC1)(c1ccccc1)c1ccccc1` stands 8.19 min.
With `CCSc1ccc2c(c1)N(CCCN1CCN(C)CC1)c1ccccc1S2`, the LC retention time amounted to 10.4 min.
Take `O=C1CN=C(c2ccccc2)c2cc([N+](=O)[O-])ccc2N1`: the LC retention time is 7.79 min.
Regarding `COc1ccc(C(CN(C)C)C2(O)CCCCC2)cc1` (stereo unspecified), the LC retention time came to 6.14 min.
Consider `Cc1nnc(SCC2=C(C(=O)O)N3C(=O)C(NC(=O)Cn4cnnn4)C3SC2)s1` (stereo unspecified), for which the LC retention time was determined as 4.16 min.
As for `CN1CCN(CC(=O)N2c3ccccc3C(=O)Nc3cccnc32)CC1`, the LC retention time came to 4.11 min.
As to `CN(C(=O)COc1nc2ccccc2s1)c1ccccc1`, the LC retention time turned out to be 9.83 min.
With `CCNP(=S)(OC)OC(C)=CC(=O)OC(C)C` (stereo unspecified), the LC retention time amounted to 9.79 min.
With `COc1nc(NC(C)C)nc(NC(C)C)n1`, the LC retention time was 8.86 min.
With `COP(N)(=O)SC` (stereo unspecified), the LC retention time worked out at 2.76 min.
Consider `COc1ccc2nc(S(=O)Cc3ncc(C)c(OC)c3C)[nH]c2c1` (stereo unspecified), for which the LC retention time was 7.81 min.
With `CCCSc1cc(OC)c(CCN)cc1OC`, the LC retention time is 6.98 min.
Regarding `O=C(O)c1cc(N=Nc2ccc(O)c(C(=O)O)c2)ccc1O`, the LC retention time was determined as 5.66 min.
With `CCCCn1c(O)c(C(=O)c2cccc3ccccc23)c2ccccc21` the figure was 13.5 min; with `CC(C)Cc1ccc(C(C)C(=O)O)cc1` (stereo unspecified), 10.7 min; with `CCC(CO)NC(=O)C1C=C2c3cccc4[nH]cc(c34)CC2N(C)C1` (stereo unspecified), 4.34 min.
Under `C=CCC1(C(C)C#CCC)C(=O)NC(=O)N(C)C1=O` (stereo unspecified) stands 9.09 min; under `CNC(=O)C(C)SCCSP(=O)(OC)OC` (stereo unspecified), 5.02 min.
As to `CC(Cc1ccc(C(C)(C)C)cc1)CN1CCCCC1` (stereo unspecified), the LC retention time is 8.62 min.
Regarding `CC(C)(C)C(O)C(Oc1ccc(-c2ccccc2)cc1)n1cncn1` (stereo unspecified), the LC retention time worked out at 11.3 min.
Turning to `CC(C)c1cc(Oc2ccccc2)cc(C(C)C)c1NC(=S)NC(C)(C)C`, the LC retention time is 12.9 min.
In the case of `Nc1nc2ccccc2[nH]1`, the LC retention time is 3.74 min.
For `CCCc1nn(C)c2c(=S)nc(-c3cc(S(=O)(=O)N4CCN(C)CC4)ccc3OCC)[nH]c12`, the LC retention time was 10.6 min.
Consider `O=S(=O)(O)c1ccc2ccccc2c1`, for which the LC retention time amounted to 5.44 min.
With `CC1(C)OC2COC3(COS(N)(=O)=O)OC(C)(C)OC3C2O1` (stereo unspecified), the LC retention time is 6.08 min.
As for `CCCn1c(C)c(C(=O)c2cccc3ccccc23)c2ccccc21`, the LC retention time is 11.5 min.
Consider `CCCCCCn1cc(C(=O)c2cccc3ccccc23)c2ccccc21`, for which the LC retention time was found to be 12.9 min.
Turning to `CCCCOc1ccc(CC(=O)NO)cc1`, the LC retention time is 7.83 min.
For `CCCCCn1cc(C(=O)c2cccc3ccccc23)c2ccc(OC)cc21`, the LC retention time was 12.4 min.
For the compound `O=C(OC1CN2CCC1CC2)N1CCc2ccccc2C1c1ccccc1` (stereo unspecified), the LC retention time was determined as 7.95 min.
